The target of assay [1] is Trifunctional purine biosynthetic protein adenosine-3 (Homo sapiens) (UniProt P22102). Put plainly: Inhibition of GAR transformylase from mammalian Manca.
The target of assay [2] is T1, Dihydrofolate reductase (Mus musculus, UniProt P00375).
T1 sequence (P00375 whole entry): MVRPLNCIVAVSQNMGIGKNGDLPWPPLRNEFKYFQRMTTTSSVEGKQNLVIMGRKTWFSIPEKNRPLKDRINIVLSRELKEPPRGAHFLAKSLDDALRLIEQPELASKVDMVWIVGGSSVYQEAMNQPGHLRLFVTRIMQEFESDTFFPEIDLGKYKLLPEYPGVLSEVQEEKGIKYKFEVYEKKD
Put plainly: Evaluated for inhibition of dihydrofolate reductase (DHFR) isolated from L1210 cells. The class given is cell-based.

Assay [3] concerns the target T2, Trifunctional purine biosynthetic protein adenosine-3 (Mus musculus, UniProt Q64737).
T2 sequence (Q64737 whole entry): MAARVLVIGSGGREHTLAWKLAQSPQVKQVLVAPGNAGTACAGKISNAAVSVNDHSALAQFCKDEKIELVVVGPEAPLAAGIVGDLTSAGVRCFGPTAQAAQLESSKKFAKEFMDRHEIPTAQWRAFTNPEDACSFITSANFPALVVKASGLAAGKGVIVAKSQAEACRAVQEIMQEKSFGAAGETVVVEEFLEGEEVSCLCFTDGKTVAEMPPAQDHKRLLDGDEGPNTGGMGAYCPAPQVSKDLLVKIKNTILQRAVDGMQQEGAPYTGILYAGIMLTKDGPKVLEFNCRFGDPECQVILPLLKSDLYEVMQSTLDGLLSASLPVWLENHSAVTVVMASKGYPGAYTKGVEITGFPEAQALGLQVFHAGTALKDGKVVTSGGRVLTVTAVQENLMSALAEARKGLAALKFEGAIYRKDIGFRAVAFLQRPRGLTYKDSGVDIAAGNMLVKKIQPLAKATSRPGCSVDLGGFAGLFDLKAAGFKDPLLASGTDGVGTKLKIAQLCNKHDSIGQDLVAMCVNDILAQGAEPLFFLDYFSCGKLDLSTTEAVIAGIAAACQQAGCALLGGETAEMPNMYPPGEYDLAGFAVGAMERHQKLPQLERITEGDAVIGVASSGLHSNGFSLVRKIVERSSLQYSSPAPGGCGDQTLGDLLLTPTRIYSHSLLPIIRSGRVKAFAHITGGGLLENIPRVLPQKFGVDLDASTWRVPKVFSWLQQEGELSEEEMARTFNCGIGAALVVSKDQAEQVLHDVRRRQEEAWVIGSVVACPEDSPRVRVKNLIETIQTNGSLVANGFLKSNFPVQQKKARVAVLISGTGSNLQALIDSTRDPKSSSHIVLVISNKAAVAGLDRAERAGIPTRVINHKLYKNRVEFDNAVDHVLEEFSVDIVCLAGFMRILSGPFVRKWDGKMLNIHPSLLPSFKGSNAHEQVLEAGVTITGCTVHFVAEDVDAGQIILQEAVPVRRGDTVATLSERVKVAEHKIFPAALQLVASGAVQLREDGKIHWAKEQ
Put plainly: Inhibition of GAR transformylase from mammalian L1210 cells. The class given is cell-based.

The target in assay [4] is Dihydrofolate reductase (Lactobacillus casei, UniProt P00381). Nature of the assay: Evaluated for inhibition of dihydrofolate reductase (DHFR) from Lactobacillus casei. The arrangement: species or system Lacticaseibacillus casei.
A further assay addresses T3, Thymidylate synthase (Lactobacillus casei, UniProt P00469).
T3 sequence (P00469 whole entry): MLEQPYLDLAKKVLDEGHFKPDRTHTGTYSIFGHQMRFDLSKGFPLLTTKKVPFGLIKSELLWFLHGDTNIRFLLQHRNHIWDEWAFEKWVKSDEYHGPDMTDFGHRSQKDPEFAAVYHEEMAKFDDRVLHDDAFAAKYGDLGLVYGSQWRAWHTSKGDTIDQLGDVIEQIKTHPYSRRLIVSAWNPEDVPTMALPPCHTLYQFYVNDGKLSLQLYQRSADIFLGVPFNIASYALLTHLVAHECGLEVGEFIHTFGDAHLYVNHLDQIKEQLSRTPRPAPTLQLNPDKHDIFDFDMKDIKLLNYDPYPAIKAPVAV
Nature of the assay: Evaluated for inhibition of thymidylate synthase (TS) from Lactobacillus casei. On the set-up: species or system Lacticaseibacillus casei.

The test system of assay [5] is L1210. Put plainly: Evaluated for cell growth inhibition of L1210 cells in cultures. It counts as functional, cell-based. Particulars: Mus musculus.
Assay [6] concerns L1210. Put plainly: Influx characteristics toward L1210 cells was evaluated. It counts as functional, cell-based. Particulars: Mus musculus.
In assay [7] the test system is L1210. Put plainly: Efflux characteristics in the L1210 cells was evaluated. It counts as functional, Mus musculus.

Sequence of Trifunctional purine biosynthetic protein adenosine-3 (Homo sapiens) (P22102 whole entry, looked up): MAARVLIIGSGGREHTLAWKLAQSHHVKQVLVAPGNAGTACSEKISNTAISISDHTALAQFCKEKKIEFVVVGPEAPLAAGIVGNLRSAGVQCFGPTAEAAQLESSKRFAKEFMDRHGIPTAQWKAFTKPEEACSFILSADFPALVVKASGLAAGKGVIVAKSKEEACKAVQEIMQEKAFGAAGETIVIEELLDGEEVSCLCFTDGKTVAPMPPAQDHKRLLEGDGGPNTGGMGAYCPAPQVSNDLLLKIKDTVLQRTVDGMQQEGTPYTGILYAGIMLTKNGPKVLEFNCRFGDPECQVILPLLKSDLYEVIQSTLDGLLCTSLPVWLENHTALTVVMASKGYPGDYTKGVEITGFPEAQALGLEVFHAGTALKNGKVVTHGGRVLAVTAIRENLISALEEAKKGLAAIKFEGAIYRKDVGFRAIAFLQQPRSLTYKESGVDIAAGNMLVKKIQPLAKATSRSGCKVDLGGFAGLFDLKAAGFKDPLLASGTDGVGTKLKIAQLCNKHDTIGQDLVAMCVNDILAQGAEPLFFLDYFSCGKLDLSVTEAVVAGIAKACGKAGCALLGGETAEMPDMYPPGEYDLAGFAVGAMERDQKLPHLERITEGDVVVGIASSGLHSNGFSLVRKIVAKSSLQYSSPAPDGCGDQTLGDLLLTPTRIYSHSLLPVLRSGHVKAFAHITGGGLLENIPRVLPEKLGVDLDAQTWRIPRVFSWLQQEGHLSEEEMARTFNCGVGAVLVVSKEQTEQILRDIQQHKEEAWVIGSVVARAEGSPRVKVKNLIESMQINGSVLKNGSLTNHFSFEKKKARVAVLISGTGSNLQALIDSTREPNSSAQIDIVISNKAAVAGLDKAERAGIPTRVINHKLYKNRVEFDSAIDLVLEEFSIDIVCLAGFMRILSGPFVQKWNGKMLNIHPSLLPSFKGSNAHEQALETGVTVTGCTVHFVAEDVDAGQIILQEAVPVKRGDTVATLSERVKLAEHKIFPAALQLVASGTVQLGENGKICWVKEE
Sequence of Dihydrofolate reductase (Lactobacillus casei, UniProt P00381) (P00381 whole entry): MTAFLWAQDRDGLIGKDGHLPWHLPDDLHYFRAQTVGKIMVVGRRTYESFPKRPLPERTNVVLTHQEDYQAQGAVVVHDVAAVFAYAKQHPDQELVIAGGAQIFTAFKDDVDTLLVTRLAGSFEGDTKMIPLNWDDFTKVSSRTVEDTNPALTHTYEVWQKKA

One may read the IC50 as the midpoint of a concentration-inhibition curve. Read a high IC50 as lower potency. One may read the Ki as a dissociation constant, usually derived from enzyme kinetics or from competition with a known ligand. A lower Ki goes with a stronger hold on the target. For `Cc1c(CCc2ccc(C(=O)NC(CCC(=O)O)C(=O)O)cc2)cnc2nc(N)[nH]c(=O)c12` (stereo not given), the IC50 in assay [1] was more than 20000 nM; in assay [3] it was more than 20000 nM; against Dihydrofolate reductase [4], 16000 nM; at Thymidylate synthase it was 44000 nM. The Ki on Dihydrofolate reductase [2] was more than 1 nM.

For orientation: Km means the substrate concentration at which the rate is half of its maximum. Compound `Cc1c(CCc2ccc(C(=O)NC(CCC(=O)O)C(=O)O)cc2)cnc2nc(N)nc(O)c12` (stereo not given) returned an IC50 with L1210 [5] of 36400 nM. Further, the Michaelis-Menten constant (Km) with L1210 [6] is 18.8 µM.

In turn, `Cc1c(CCc2ccc(C(=O)NC(CCC(=O)O)C(=O)O)cc2)cnc2nc(N)nc(N)c12` (stereo not given) yielded a Ki at Dihydrofolate reductase [2] of 0.0283 nM. Also, the IC50 worked out at 23.2 nM with L1210 [5], 23 nM on Dihydrofolate reductase [4] and 2900 nM against Thymidylate synthase. Besides, the k with L1210 [7] stood at 0.5 min⁻¹. The Km in the assay on L1210 [6] was 1.25 µM.

Take `CCC1c2c(O)nc(N)nc2NCC1CCc1ccc(C(=O)NC(CCC(=O)O)C(=O)O)cc1` (racemic): the IC50 in assay [1] was 500 nM; with L1210 [5], 57.2 nM; in assay [3], 500 nM; at Dihydrofolate reductase [4], 19000 nM; against Thymidylate synthase, more than 100000 nM. The compound further came in with an inhibition constant Ki at Dihydrofolate reductase [2] of more than 1 nM. In addition, the Km with L1210 [6] was determined as 2.48 µM.

`CC1c2c(O)nc(N)nc2NCC1CCc1ccc(C(=O)NC(CCC(=O)O)C(=O)O)cc1` (racemic): the concentration for half-maximal inhibition (IC50) in assay [1] was 14000 nM; in the assay on L1210 [5] it was 490 nM; in assay [3], 80000 nM; at Dihydrofolate reductase [4], more than 100000 nM; against Thymidylate synthase, more than 100000 nM. In addition, the Ki at Dihydrofolate reductase [2] was more than 1 nM. Also, the Km with L1210 [6] came out at 1.62 µM.

In the assay with L1210 [5], `CN(Cc1cnc2nc(N)nc(N)c2n1)c1ccc(C(=O)N[C@@H](CCC(=O)O)C(=O)O)cc1` [METHOTREXATE] had a concentration for half-maximal inhibition (IC50) of 2.1 nM. Also, in the assay on L1210 [7], the k came out at 0.22 min⁻¹. Further, the Km in the assay on L1210 [6] came out at 3.95 µM.
